From patent US20060166867A1, “Novel conjugates of polysaccharides and uses thereof” (priority 2003, published 2006)
Values joined by “and” are separate entries in the source; they are usually repeats but may differ in a detail not shown here. Equal entries are not always repeated.

Legend:
[1] = tested on: Escherichia coli ATCC 25922; conditions: Gram negative reference strain
[2] = tested on: A. baumannii-amikacin^s, meropenem^s; conditions: Gram negative clinical isolate
S. epidermidis MRSE [3] = conditions: Gram positive clinical isolate
CXCR4 = target: T1, CXCR4 (Homo sapiens, UniProt P61073); assay: Competition with 12G5 mAb binding to CXCR4 on MT2 cells (flow cytometry)
T1 construct: incubated at 4° C. with anti-CXCR4 mAb, 12G5, conjugated to phycoerithrine (PE); endogenous in cells; host or cells: MT2 cells
T1 sequence (P61073 whole entry): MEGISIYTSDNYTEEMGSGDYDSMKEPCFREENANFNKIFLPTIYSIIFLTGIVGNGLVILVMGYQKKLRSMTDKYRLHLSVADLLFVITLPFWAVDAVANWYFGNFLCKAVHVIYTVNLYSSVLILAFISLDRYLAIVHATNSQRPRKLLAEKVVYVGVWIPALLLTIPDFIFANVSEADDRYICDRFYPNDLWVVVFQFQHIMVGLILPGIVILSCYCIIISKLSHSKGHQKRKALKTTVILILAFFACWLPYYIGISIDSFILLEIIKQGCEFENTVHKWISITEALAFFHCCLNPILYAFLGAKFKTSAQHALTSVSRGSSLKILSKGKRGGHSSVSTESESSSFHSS
Procedure: Interaction of pAACs and arginine peptides with CXCR4 coreceptor: Interactions of pAACs and arginine-peptides with CXCR4 were determined by flow cytometry (FACS-Scan, Becton Dickinson) as previously described (Litovich (2001) supra). In brief, 0.5×10^6 MT2 cells were washed with ice-cold PBS containing 0.1% sodium azide (wash buffer) and were incubated at 4° C. with anti-CXCR4 mAb, 12G5, conjugated to phycoerithrine (PE), in the absence or presence of different concentrations of pAACs and arginine peptides. After 30 minutes of incubation, the cells were washed with ice-cold wash buffer and fixed in PBS containing 1% paraformaldehyde. Non-specific fluorescence was assessed using an isotype control. For each sample 10,000 events were acquired. Data were analyzed and processed using CellQuest™ software (Becton Dickinson).

[4] = tested on: P. aeruginosa-gentamicin^r, meropenem^r; conditions: Gram negative clinical isolate
[5] = tested on: Acinetobacter baumannii ATCC 19606; conditions: Gram negative reference strain
in vitro = assay type: cell-based; conditions: human; Table 4; tryphan blue exclusion assay for MT2 cells; read-out: Cytotoxicity
Procedure: Cytotoxicity of the various pAACs was determined using the trypan blue exclusion assay. In brief, a sample of the cell suspension was diluted 1:1 (v/v) with 0.4% trypan blue and the cells were counted using a hemocytometer. Results are expressed as the percentage of dead cells.
(§1) HIV-1 isolates were propagated by subculture in MT2 cells (Litovchick et al. (2001) supra). Aliquots of cell-free culture supernatants were used as viral inoculum. PAACs were dissolved in the RPMI 1640 medium. Cytotoxicity determinations were carried out in MT2 cells by trypan blue exclusion assay. Viral inhibition was determined by incubating MT2 or cMAGI HIV-1 reporter cells with 0.2-0.5 multiplicity of infection of HIV-1 wild type or resistant virus for 4 days at 37° C. in the presence or absence of various concentrations of pAACs. HIV-1 infection of cMAGI cells was determined by counting the number of HIV-1-infected cells (stained blue). The cytopathic effects of the viral infection of MT2 cells were also analyzed by microscopic assessment of syncytium formation.

[6] = tested on: Staphylococcus aureus ATCC 24213; conditions: Gram positive reference strain
[7] = tested on: A. baumannii-amikacin^r, meropenem^r; conditions: Gram negative clinical isolate
[8] = tested on: Proteus mirabilis ATCC 7002; conditions: Gram negative reference strain
[9] = tested on: P. aeruginosa-gentamicin^s, meropenem^s; conditions: Gram negative clinical isolate
E. Coli-ESBL negative [10] = conditions: Gram negative clinical isolate
[11] = tested on: HIV-1 clinical isolate Clade A; assay type: cell-based; conditions: Table 4; read-out: EC50 Clade A
Procedure: (§2) Inhibition of HIV-1 cell replication was tested using the cMAGI assay, which is based on the ability of HIV-1 TAT to transactivate the expression of an integrated β-galactosidase reporter gene driven by the HIV-LTR (B. Chackeria et al., J. Virol., (1997) 71, 3932; Collins et al., Nat. Med. (2000) 6, 475). The β-galactosidase reporter is modified to remain localized in the nucleus where it can be detected with the X-gal (5-bromo-4-chloro-3indoyl-β-D-galactopyranoside) substrate as an intense nuclear stain within a few days of infection.
as §1

HIV-1 Ba-L = assay type: cell-based; conditions: Table 4
Procedure: as §2, §1

[12] = tested on: HIV-1 NeoR6 resistant virus; assay type: cell-based; conditions: read-out: EC50 NeoR6^Res; Table 4
Procedure: as §2, §1

[13] = tested on: HIV-1 Protease resistant virus; assay type: cell-based; conditions: Table 4; read-out: EC50 Protease^Res
Procedure: as §2, §1

[14] = tested on: HIV-1 clinical isolate Clade C; assay type: cell-based; conditions: Table 4; read-out: EC50 Clade C
Procedure: as §2, §1

[15] = tested on: HIV-1 AZT resistant virus; assay type: cell-based; conditions: Table 4; read-out: EC50 AZT^Res
Procedure: as §2, §1

[16] = tested on: Enterobacter cloacae W25161; conditions: Gram negative clinical isolate
S. aureus MRSA [17] = conditions: Gram positive clinical isolate
[18] = tested on: K. pneumoniae-ESBL negative; conditions: Gram negative clinical isolate
S. aureus MSSA [19] = conditions: Gram positive clinical isolate
A. baumannii R16998 = conditions: Gram negative clinical isolate
E. Coli B3095141^r [20] = conditions: clinical isolate, Table 7
[21] = tested on: Enterococcus faecalis-vancomycin^r; conditions: clinical isolate, Table 7
HIV-1 IIIB = assay: microbe, parasite or virus in culture; assay type: cell-based; conditions: Table 4; read-out: EC50 IIIB
Procedure: as §2, §1

S. epidermidis MSSE [22] = conditions: Gram positive clinical isolate
Enterobacter aerogenes [23] = conditions: Gram negative clinical isolate
Enterobacter cloacae = conditions: Gram negative clinical isolate
[24] = tested on: Pseudomonas aeruginosa ATCC 27853; conditions: Gram negative reference strain
[25] = tested on: K. pneumoniae-ESBL positive; conditions: Gram negative clinical isolate
E. Coli-ESBL positive [26] = conditions: Gram negative clinical isolate
[27] = tested on: Klebsiella pneumoniae ATCC 13883; conditions: Gram negative reference strain
A. baumannii R16998^r = assay: Gentamycin Disk Diffusion test; assay type: cell-based, Acinetobacter baumannii; conditions: disk method
E. Coli B3095141^r [28] = assay: Gentamycin Disk Diffusion test; assay type: cell-based, Escherichia coli; conditions: disk method
S. epidermidis MSSE [29] = assay: Gentamycin Disk Diffusion test; assay type: cell-based, Staphylococcus epidermidis; conditions: disk method
[30] = tested on: Enterobacter cloacae W25161^r; assay: Gentamycin Disk Diffusion test; assay type: cell-based; conditions: disk method
Enterobacter aerogenes [31] = assay: Gentamycin Disk Diffusion test; assay type: cell-based; conditions: disk method
E. Coli-ESBL negative [32] = assay: Gentamycin Disk Diffusion test; assay type: cell-based, Escherichia coli; conditions: disk method
E. Coli-ESBL positive [33] = assay: Gentamycin Disk Diffusion test; assay type: cell-based, Escherichia coli; conditions: disk method
S. aureus MSSA [34] = assay: Gentamycin Disk Diffusion test; assay type: cell-based, Staphylococcus aureus; conditions: disk method
S. aureus MRSA [35] = assay: Gentamycin Disk Diffusion test; assay type: cell-based, Staphylococcus aureus; conditions: disk method
[36] = tested on: A. baumannii-amikacin^r, meropenem^r; assay: Gentamycin Disk Diffusion test; assay type: cell-based, Acinetobacter baumannii; conditions: disk method
[37] = tested on: K. pneumoniae-ESBL negative; assay: Gentamycin Disk Diffusion test; assay type: cell-based, Klebsiella pneumoniae; conditions: disk method
[38] = tested on: A. baumannii-amikacin^s, meropenem^s; assay: Gentamycin Disk Diffusion test; assay type: cell-based, Acinetobacter baumannii; conditions: disk method
[39] = tested on: K. pneumoniae-ESBL positive; assay: Gentamycin Disk Diffusion test; assay type: cell-based, Klebsiella pneumoniae; conditions: disk method
[40] = tested on: Enterococcus faecalis-vancomycin^r; assay: Gentamycin Disk Diffusion test; assay type: cell-based; conditions: disk method
S. epidermidis MRSE [41] = assay: Gentamycin Disk Diffusion test; assay type: cell-based, Staphylococcus epidermidis; conditions: disk method

CC(=O)N[C@H](CCCNC(=N)N)C(=O)N[C@H](CCCNC(=N)N)C(=O)N[C@H](CCCNC(=N)N)C(=O)N[C@H](CCCNC(=N)N)C(=O)N[C@H](CCCNC(=N)N)C(=O)N[C@H](CCCNC(=N)N)C(=O)N[C@H](CCCNC(=N)N)C(=O)N[C@H](CCCNC(=N)N)C(=O)N[C@H](CCCNC(=N)N)C(=O)NC[C@H]1O[C@H](O[C@H]2[C@H](O)[C@@H](O)[C@H](N)C[C@@H]2N)[C@H](N)[C@@H](O)[C@@H]1O [Compound 13, D-Arg-9-mer-neamine]
Minimum Inhibitory Concentration [1]: 6.0 mg/liter and 2.40 μM
Minimum Inhibitory Concentration [2]: 12.0 mg/liter and 4.8 μM
Minimum Inhibitory Concentration (S. epidermidis MRSE [3]): 0.5 mg/liter and 0.20 μM
inhibition at 2 µM (CXCR4; read-out: % Inhibition of 12G5 mAb binding to CXCR4, 2 μM): 67.3%
inhibition at 10 µM (CXCR4; read-out: % Inhibition of 12G5 mAb binding to CXCR4, 10 μM): 100%
Minimum Inhibitory Concentration [4]: 96.0 mg/liter and 38.55 μM
Minimum Inhibitory Concentration [5]: 16.0 mg/liter and 6.40 μM
CC50 (in vitro): 150000 nM
Minimum Inhibitory Concentration [6]: 2.0 mg/liter and 0.80 μM
Minimum Inhibitory Concentration [7]: 96.0 mg/liter and 38.55 μM
Minimum Inhibitory Concentration [8]: 8.0 mg/liter and 3.20 μM
Minimum Inhibitory Concentration [9]: 48.0 mg/liter and 19.28 μM
Minimum Inhibitory Concentration (E. Coli-ESBL negative [10]): 6.0 mg/liter and 2.40 μM
EC50 [11]: 5100 ± 2900 nM
EC50 (HIV-1 Ba-L): > 50000 nM
EC50 [12]: 3000 ± 1000 nM
EC50 [13]: 2400 ± 400 nM
EC50 [14]: 2700 ± 500 nM
EC50 [15]: 10400 ± 2700 nM
Minimum Inhibitory Concentration [16]: 24.0 mg/liter and 9.64 μM
Minimum Inhibitory Concentration (S. aureus MRSA [17]): 1.5 mg/liter and 0.60 μM
Minimum Inhibitory Concentration [18]: 3.0 mg/liter and 1.20 μM
Minimum Inhibitory Concentration (S. aureus MSSA [19]): 1.5 mg/liter and 0.60 μM
Minimum Inhibitory Concentration (A. baumannii R16998): 128.0 mg/liter and 51.41 μM
Minimum Inhibitory Concentration (E. Coli B3095141^r [20]): 6.0 mg/liter and 2.40 μM
Minimum Inhibitory Concentration [21]: 64.0 mg/liter and 25.70 μM
EC50 (HIV-1 IIIB): 2300 ± 500 nM
Minimum Inhibitory Concentration (S. epidermidis MSSE [22]): 0.5 mg/liter and 0.20 μM
Minimum Inhibitory Concentration (Enterobacter aerogenes [23]): 16 mg/liter and 6.40 μM
Minimum Inhibitory Concentration (Enterobacter cloacae): 8.0 mg/liter and 3.20 μM
Minimum Inhibitory Concentration [24]: 96.0 mg/liter and 38.55 μM
Minimum Inhibitory Concentration [25]: 3.0 mg/liter and 1.20 μM
Minimum Inhibitory Concentration (E. Coli-ESBL positive [26]): 8.0 mg/liter and 3.20 μM
Minimum Inhibitory Concentration [27]: 1.5 mg/liter and 0.60 μM

Gentamycin
Gentamycin (disk): resistance or sensitivity of the tested strain (A. baumannii R16998^r): r (resistance of the tested strain (disk method diameter ≦12 millimeters, equivalent to a MIC ≧8 mg/liter))
Gentamycin (disk): resistance or sensitivity of the tested strain (E. Coli B3095141^r [28]): r (resistance of the tested strain (disk method diameter ≦12 millimeters, equivalent to a MIC ≧8 mg/liter))
Gentamycin (disk): resistance or sensitivity of the tested strain (S. epidermidis MSSE [29]): s (sensitivity of the tested strain (disk method diameter ≧15 millimeters, equivalent to a MIC ≦4 mg/liter))
Gentamycin (disk): resistance or sensitivity of the tested strain [30]: r (resistance of the tested strain (disk method diameter ≦12 millimeters, equivalent to a MIC ≧8 mg/liter))
Gentamycin (disk): resistance or sensitivity of the tested strain (Enterobacter aerogenes [31]): r (resistance of the tested strain (disk method diameter ≦12 millimeters, equivalent to a MIC ≧8 mg/liter))
Gentamycin (disk): resistance or sensitivity of the tested strain (E. Coli-ESBL negative [32]): s (sensitivity of the tested strain (disk method diameter ≧15 millimeters, equivalent to a MIC ≦4 mg/liter))
Gentamycin (disk): resistance or sensitivity of the tested strain (E. Coli-ESBL positive [33]): r (resistance of the tested strain (disk method diameter ≦12 millimeters, equivalent to a MIC ≧8 mg/liter))
Gentamycin (disk): resistance or sensitivity of the tested strain (S. aureus MSSA [34]): r (resistance of the tested strain (disk method diameter ≦12 millimeters, equivalent to a MIC ≧8 mg/liter))
Gentamycin (disk): resistance or sensitivity of the tested strain (S. aureus MRSA [35]): s (sensitivity of the tested strain (disk method diameter ≧15 millimeters, equivalent to a MIC ≦4 mg/liter))
Gentamycin (disk): resistance or sensitivity of the tested strain [36]: r (resistance of the tested strain (disk method diameter ≦12 millimeters, equivalent to a MIC ≧8 mg/liter))
Gentamycin (disk): resistance or sensitivity of the tested strain [37]: s (sensitivity of the tested strain (disk method diameter ≧15 millimeters, equivalent to a MIC ≦4 mg/liter))
Gentamycin (disk): resistance or sensitivity of the tested strain [38]: r (resistance of the tested strain (disk method diameter ≦12 millimeters, equivalent to a MIC ≧8 mg/liter))
Gentamycin (disk): resistance or sensitivity of the tested strain [39]: r (resistance of the tested strain (disk method diameter ≦12 millimeters, equivalent to a MIC ≧8 mg/liter))
Gentamycin (disk): resistance or sensitivity of the tested strain [40]: r (resistance of the tested strain (disk method diameter ≦12 millimeters, equivalent to a MIC ≧8 mg/liter))
Gentamycin (disk): resistance or sensitivity of the tested strain (S. epidermidis MRSE [41]): s (sensitivity of the tested strain (disk method diameter ≧15 millimeters, equivalent to a MIC ≦4 mg/liter))
